Patent EP2913333A1 (priority 2014, dated 2015)

Tests used:
[1] = biological target: T1, E. feacium DltA (Enterococcus faecium, UniProt Q3XZT7); assay: in vitro DltA activity assay (luminescence, IC50 determination); type: biochemical; details: recombinant DltA, 30min preincubation at room temperature, 0.5mM D-Alanine, 0.5-5µM ATP; read-out: E. feacium DltA IC50
T1 sequence (Q3XZT7 1-504): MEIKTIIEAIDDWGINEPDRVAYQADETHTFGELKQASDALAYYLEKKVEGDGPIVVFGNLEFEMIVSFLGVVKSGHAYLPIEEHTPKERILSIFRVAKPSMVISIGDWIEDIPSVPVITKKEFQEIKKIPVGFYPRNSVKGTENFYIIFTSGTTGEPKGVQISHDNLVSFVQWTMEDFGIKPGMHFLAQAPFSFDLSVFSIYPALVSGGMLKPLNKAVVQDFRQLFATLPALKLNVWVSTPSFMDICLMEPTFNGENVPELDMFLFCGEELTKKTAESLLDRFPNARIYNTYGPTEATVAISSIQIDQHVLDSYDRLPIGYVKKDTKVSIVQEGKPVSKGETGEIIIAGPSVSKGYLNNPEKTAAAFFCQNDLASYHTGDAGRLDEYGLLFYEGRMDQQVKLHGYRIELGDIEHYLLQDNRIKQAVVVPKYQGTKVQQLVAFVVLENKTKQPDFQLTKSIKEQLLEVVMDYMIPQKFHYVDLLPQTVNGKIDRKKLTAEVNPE
Protocol: (§1) The effect of the compounds of the invention on DltA enzymes has been based on the measure of their inhibition of DltA activity in vitro. To this end, recombinant proteins DltA were expressed and purified after cloning of the genes of S. aureus, E. faecalis, E. faecium and S. agalactiae as described thereafter. The capacity of the compounds of the invention to inhibit DltA enzymatic activity was assessed using the DltA assays as described below: • The dltA gene was amplified from chromosomal DNA of S. aureus, E. faecalis, E. faecium and S. agalactiae and introduced into E. coli BL21 (Invitrogen, Carlsbad, CA) following manufacturer's instruction. Bacteria were grown at 37°C under aerobic conditions and isopropyl-beta-D-thiogalactopyranoside (IPTG) was added to 0.5-1 mM when OD600 of the bacterial culture had reached 0.5. After a further incubation for 3 hours, cells were harvested by centrifugation. Purification of the recombinant DltA protein was performed by affinity chromatography on nickel-nitrilotriacetic acid (Ni-NTA) column following manufacturer's instructions (Qiagen). Fractions containing recombinant DltA protein were adjusted to 50% glycerol and stored at -20°C until use.
(§2) The binding potency of the inhibitors against DltA enzyme was assessed by IC50 determination in an in vitro DltA activity assay. The assay buffer "AB" contained 50 mM Hepes pH8.0, 10mM MgCl2, 50mM KCI, 0.012% Triton-X100, 10mM DTT and 100nM Myelin-basic protein. The following components were added in a white polystyrene Costar plate up to a final volume of 30µL: 3µL DMSO, or inhibitor dissolved in DMSO and 27µL DltA enzyme in AB. After 30min of preincubation at room temperature, 30µL of Substrates mix in AB were added in each well to a final volume of 60µL. This reaction mixture was then composed of DltA (produced in house from S. aureus, E. faecalis, E. faecium and S. agalactiae), 0.5mM D-Alanine (Sigma), 0.5-5µM ATP (Sigma) and 0.05 u/ml inorganic pyrophosphatase (Sigma) in assay buffer. After typically 1-2hours of incubation at room temperature (conversion rate around 30%), 30µL of the revelation mix were added to a final volume of 90µL, including the following constituents at the respective final concentrations: 10000 u/ml luciferase (Sigma), 30µM D-luciferin (Sigma), 100µM N-acetylcysteamine (Aldrich). Luminescence intensity was immediately measured on a Fluostar Optima (BMG) (excitation 360nm, emission 520nm) and converted into inhibition percentages.
(§3) For compounds interfering with the luminescent signal (quenching), the same experiment without DltA enzyme was performed to allow quenching determination and correction.

[2] = biological target: T2, S. aureus DltA (Staphylococcus aureus, UniProt Q2FZW6); assay: as above; type: biochemical
T2 construct: made in house; host or cells: E. coli BL21
T2 sequence (Q2FZW6 1-485): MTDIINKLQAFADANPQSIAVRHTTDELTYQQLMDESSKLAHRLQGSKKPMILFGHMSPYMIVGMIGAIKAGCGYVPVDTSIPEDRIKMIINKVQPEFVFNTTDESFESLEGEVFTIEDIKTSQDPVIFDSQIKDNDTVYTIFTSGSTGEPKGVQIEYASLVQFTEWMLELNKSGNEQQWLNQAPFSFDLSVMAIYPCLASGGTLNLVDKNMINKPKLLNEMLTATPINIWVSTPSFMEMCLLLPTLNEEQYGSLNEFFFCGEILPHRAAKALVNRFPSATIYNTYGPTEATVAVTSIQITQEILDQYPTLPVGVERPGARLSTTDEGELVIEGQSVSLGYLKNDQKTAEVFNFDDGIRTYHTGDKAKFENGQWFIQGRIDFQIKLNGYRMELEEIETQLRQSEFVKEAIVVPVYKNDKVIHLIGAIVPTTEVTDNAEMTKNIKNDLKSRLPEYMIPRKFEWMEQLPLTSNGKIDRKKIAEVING
Protocol: as §1, §2, §3

[3] = biological target: T3, E. feacalis DltA (Enterococcus faecalis, UniProt Q830N0); assay: biochemical
T3 sequence (Q830N0 1-506): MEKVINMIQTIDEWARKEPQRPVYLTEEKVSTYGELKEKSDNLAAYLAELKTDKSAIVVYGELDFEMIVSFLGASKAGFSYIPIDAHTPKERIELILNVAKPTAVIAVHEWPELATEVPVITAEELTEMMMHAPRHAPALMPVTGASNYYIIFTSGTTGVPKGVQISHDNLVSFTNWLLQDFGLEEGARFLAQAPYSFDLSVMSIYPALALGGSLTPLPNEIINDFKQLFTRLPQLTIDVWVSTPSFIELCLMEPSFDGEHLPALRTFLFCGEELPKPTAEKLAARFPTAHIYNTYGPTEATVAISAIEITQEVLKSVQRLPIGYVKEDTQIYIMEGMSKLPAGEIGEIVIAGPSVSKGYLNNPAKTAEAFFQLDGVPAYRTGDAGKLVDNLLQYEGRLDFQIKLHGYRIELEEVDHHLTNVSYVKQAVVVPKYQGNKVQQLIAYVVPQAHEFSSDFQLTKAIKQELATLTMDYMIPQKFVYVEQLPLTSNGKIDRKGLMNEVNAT
Protocol: as §1, with “To” for “The effect of the compounds of the invention on DltA enzymes has been based on the measure of their inhibition of DltA activity in vitro. To”
as §2, §3

[4] = biological target: T4, S. Agalactiae DltA (Streptococcus agalactiae serotype III, UniProt Q8VM67); assay: biochemical
T4 sequence (Q8VM67 1-511): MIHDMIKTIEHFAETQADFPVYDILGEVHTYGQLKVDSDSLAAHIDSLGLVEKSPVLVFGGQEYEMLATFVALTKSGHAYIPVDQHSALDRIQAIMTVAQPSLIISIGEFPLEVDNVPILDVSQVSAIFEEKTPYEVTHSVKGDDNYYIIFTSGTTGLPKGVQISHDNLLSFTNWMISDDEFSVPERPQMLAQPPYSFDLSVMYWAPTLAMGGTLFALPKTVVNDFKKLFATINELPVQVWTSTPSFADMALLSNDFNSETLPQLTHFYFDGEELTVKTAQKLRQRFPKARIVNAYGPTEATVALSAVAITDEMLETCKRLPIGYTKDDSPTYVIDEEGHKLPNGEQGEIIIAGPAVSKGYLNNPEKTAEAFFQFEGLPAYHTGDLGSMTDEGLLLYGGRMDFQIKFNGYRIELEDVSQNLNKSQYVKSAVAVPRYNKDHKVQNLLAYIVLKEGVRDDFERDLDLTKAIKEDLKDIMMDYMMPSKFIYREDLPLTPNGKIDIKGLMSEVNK
Protocol: as §1, with “To” for “The effect of the compounds of the invention on DltA enzymes has been based on the measure of their inhibition of DltA activity in vitro. To”
as §2, §3

Row | SMILES | IC50 [1] | IC50 [2] | IC50 [3] | IC50 [4]
1 | O=c1[nH]cnn2c(-c3ccc4c(c3)ncn4C3CCCCC3)cc(N3CC[C@H](CO)C3)c12 [Example 63, 7-(1-Cyclohexyl-1H-benzoimidazol-5-yl)-5-((S)-3-hydroxymethyl-pyrrolidin-1-yl)-3H-pyrrolo[2,1-f][1,2,4]triazin-4-one] | 1.1 µM | 0.46 µM | 0.35 µM | 25 µM
2 | O=c1[nH]cnc2c(-c3ccc4c(c3)ncn4C3CCCCC3)cn(CCCO)c12 [Example 67, 7-(1-Cyclohexyl-1H-benzimidazol-5-yl)-5-(3-hydroxy-propyl)-3,5-dihydro-pyrrolo[3,2-d]pyrimidin-4-one] | 0.93 µM | 0.15 µM | 0.18 µM | 3.8 µM
3 | O=c1[nH]cnc2c(-c3ccc4c(c3)ncn4C3CCCCC3)cn(CCCCCO)c12 [Example 68, 7-(1-Cyclohexyl-1H-benzimidazol-5-yl)-5-(5-hydroxy-pentyl)-3,5-dihydro-pyrrolo[3,2-d]pyrimidin-4-one] | 0.73 µM | 0.29 µM | 0.32 µM | 4.5 µM
4 | O=c1[nH]cnc2c(-c3ccc4c(c3)ncn4C3CCCCC3)cn(C3CCNCC3)c12 [Example 73, 7-(1-Cyclohexyl-1H-benzimidazol-5-yl)-5-piperidin-4-yl-3,5-dihydro-pyrrolo[3,2-d]pyrimidin-4-one] | 0.28 µM | 0.072 µM | 0.061 µM | 1 µM
5 | O=c1[nH]cnc2c(-c3ccc4c(c3)ncn4C3CCCCC3)cn([C@H]3CC[C@@H](CO)CC3)c12 [Example 74, 7-(1-Cyclohexyl-1H-benzimidazol-5-yl)-5-[cis-(4-hydroxymethyl-cyclohexyl)]-3,5-dihydro-pyrrolo[3,2-d]pyrimidin-4-one] | 0.14 µM | 0.15 µM | 0.093 µM | 1.1 µM
6 | O=c1[nH]cnc2c(-c3ccc4c(c3)ncn4C3CCCCC3)cn([C@H]3CCCNC3)c12 [Example 76, 7-(1-Cyclohexyl-1H-benzimidazol-5-yl)-5-(S)-piperidin-3-yl-3,5-dihydro-pyrrolo[3,2-d]pyrimidin-4-one] | 0.46 µM | 0.067 µM | 0.069 µM | 1.2 µM
7 | O=c1[nH]cnc2c(-c3ccc4c(c3)ncn4C3CCCCC3)cn(C3CCNC3)c12 (stereo not shown) [Example 77, 7-(1-Cyclohexyl-1H-benzimidazol-5-yl)-5-pyrrolidin-3-yl-3,5-dihydro-pyrrolo[3,2-d]pyrimidin-4-one] | 0.51 µM | 0.093 µM | 0.13 µM | 1.6 µM
8 | CN(C)CCCn1cc(-c2ccc3c(c2)ncn3C2CCCCC2)c2nc[nH]c(=O)c21 [Example 80, 7-(1-Cyclohexyl-1H-benzimidazol-5-yl)-5-(3-dimethylamino-propyl)-3,5-dihydro-pyrrolo[3,2-d]pyrimidin-4-one] | 0.62 µM | 0.27 µM | 0.055 µM | 1.5 µM
9 | O=c1[nH]cnc2c(-c3ccc4c(c3)ncn4C3CCCCC3)cn(C3CCOCC3)c12 [Example 81, 7-(1-Cyclohexyl-1H-benzimidazol-5-yl)-5-(tetrahydro-pyran-4-yl)-3,5-dihydro-pyrrolo[3,2-d]pyrimidin-4-one] | 0.3 µM | 0.076 µM | 0.17 µM | 2.5 µM
10 | CC(C)N1CCC(n2cc(-c3ccc4c(c3)ncn4C3CCCCC3)c3nc[nH]c(=O)c32)CC1 [Example 82, 7-(1-Cyclohexyl-1H-benzimidazol-5-yl)-5-(1-isopropyl-piperidin-4-yl)-3,5-dihydro-pyrrolo[3,2-d]pyrimidin-4-one] | 0.38 µM | 0.056 µM | 0.1 µM | 1.9 µM
